ChEMBL document CHEMBL1201862, “PubChem BioAssay data set” (2004)
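Cells were grown in 96-well plates and exposed to each compound for 48 hours at five concentrations; endpoints were interpolated linearly between bracketing concentrations, or set to the highest concentration if not reached. GI50 marks 50% less growth.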 Activity calls are given as the source filed them. Rule as the data show it: active = GI50 up to about 1.1 µM and inactive = higher.

How the values were obtained:
Experiment in all cases: growth of human tumour cells (NCI), 48 h
A498 = test system: A498
ACHN = test system: ACHN
CCRF-CEM = test system: CCRF-CEM
HCC 2998 = test system: HCC 2998
HCT-15 = test system: HCT-15
HL-60 = test system: HL-60
HOP-92 = test system: HOP-92
Malme-3M = test system: Malme-3M
NCI-H226 = test system: NCI-H226
NCI-H23 = test system: NCI-H23
NCI-H460 = test system: NCI-H460
NCI-H522 = test system: NCI-H522
OVCAR-5 = test system: OVCAR-5
SF-295 = test system: SF-295
SK-MEL-5 = test system: SK-MEL-5
SK-OV-3 = test system: SK-OV-3
SN12C = test system: SN12C
SNB-19 = test system: SNB-19
U-251 = test system: U-251

SMILES | GI50 (A498) | GI50 (ACHN) | GI50 (CCRF-CEM) | GI50 (HCC 2998) | GI50 (HCT-15) [µM] | GI50 (HL-60) | GI50 (HOP-92) | GI50 (Malme-3M) | GI50 (NCI-H226) | GI50 (NCI-H23) | GI50 (NCI-H460) | GI50 (NCI-H522) | GI50 (OVCAR-5) | GI50 (SF-295) | GI50 (SK-MEL-5) | GI50 (SK-OV-3) | GI50 (SN12C) | GI50 (SNB-19) | GI50 (U-251)
N[C@H](C(=O)O)[C@H](Cl)CC(=O)O | > 100 µM (inactive) | > 100 µM (inactive) | > 100 µM (inactive) | > 100 µM (inactive) | > 100 | > 100 µM (inactive) | > 100 µM (inactive) | > 100 µM (inactive) | > 100 µM (inactive) | > 100 µM (inactive) | > 100 µM (inactive) | > 100 µM (inactive) | > 100 µM (inactive) | > 100 µM (inactive) | > 100 µM (inactive) | > 100 µM (inactive) | > 100 µM (inactive) | > 100 µM (inactive) | > 100 µM (inactive)
COC(=O)CCC1(C)C2CCC1(C)/C(=N/O)C2 (stereo not given) | – | > 100 µM (inactive) | > 100 µM (inactive) | > 100 µM (inactive) | > 100 | – | – | > 100 µM (inactive) | > 100 µM (inactive) | > 100 µM (inactive) | – | > 100 µM (inactive) | > 100 µM (inactive) | > 100 µM (inactive) | > 100 µM (inactive) | > 100 µM (inactive) | > 100 µM (inactive) | > 100 µM (inactive) | > 100 µM (inactive)
CSc1ccc(/C=C2\CNC/C(=C\c3ccc(SC)cc3)C2=O)cc1 | – | 120 µM (inactive) | – | – | > 179 | > 74.3 µM (inactive) | 65.5 µM (inactive) | > 199 µM (inactive) | 40.6 µM (inactive) | – | > 119 µM (inactive) | 56.4 µM (inactive) | > 284 µM (inactive) | 29.4 µM (inactive) | > 371 µM (inactive) | 96.8 µM (inactive) | > 139 µM (inactive) | 26.7 µM (inactive) | 16.9 µM (inactive)
COc1c(N2CCCCC2)c2c(=O)c3ccccc3oc2c2cc(C)oc12 | 16 µM (inactive) | 5.6 µM (inactive) | 8.63 µM (inactive) | 18.5 µM (inactive) | 16.7 | 20.9 µM (inactive) | 7.45 µM (inactive) | 19.3 µM (inactive) | 13.3 µM (inactive) | 18.5 µM (inactive) | 7.78 µM (inactive) | – | 23.5 µM (inactive) | 18.8 µM (inactive) | 16.5 µM (inactive) | 28.1 µM (inactive) | 24.8 µM (inactive) | 40 µM (inactive) | 24.4 µM (inactive)
COc1cc(N(CCC#N)CCC#N)ccc1/C=N\NC(=O)c1ccc(C)cc1 | – | > 100 µM (inactive) | > 100 µM (inactive) | – | > 100 | > 100 µM (inactive) | > 100 µM (inactive) | > 100 µM (inactive) | > 100 µM (inactive) | > 100 µM (inactive) | > 100 µM (inactive) | > 100 µM (inactive) | > 100 µM (inactive) | > 100 µM (inactive) | > 100 µM (inactive) | > 100 µM (inactive) | > 100 µM (inactive) | > 100 µM (inactive) | 16.4 µM (inactive)
CCC#CCCCCCCCCC(F)C(=O)O (stereo not given) | > 100 µM (inactive) | > 100 µM (inactive) | > 100 µM (inactive) | > 100 µM (inactive) | > 100 | > 100 µM (inactive) | > 100 µM (inactive) | > 100 µM (inactive) | > 100 µM (inactive) | > 100 µM (inactive) | – | > 100 µM (inactive) | > 100 µM (inactive) | > 100 µM (inactive) | > 100 µM (inactive) | > 100 µM (inactive) | > 100 µM (inactive) | > 100 µM (inactive) | > 100 µM (inactive)
COc1cc2c(cc1OC)-c1c3cc(O)ccc3nn[n+]1CC2 | – | – | > 100 µM (inactive) | > 100 µM (inactive) | – | > 100 µM (inactive) | – | – | > 100 µM (inactive) | > 100 µM (inactive) | > 100 µM (inactive) | > 100 µM (inactive) | – | > 100 µM (inactive) | > 100 µM (inactive) | > 100 µM (inactive) | > 100 µM (inactive) | > 100 µM (inactive) | > 100 µM (inactive)
CN(C(=O)/C=C/c1ccccc1)C1C2CN3CCC(O2)C13 (stereo not given) | > 100 µM (inactive) | > 100 µM (inactive) | > 100 µM (inactive) | > 100 µM (inactive) | > 100 | > 100 µM (inactive) | – | > 100 µM (inactive) | > 100 µM (inactive) | > 100 µM (inactive) | > 100 µM (inactive) | > 100 µM (inactive) | > 100 µM (inactive) | > 100 µM (inactive) | > 100 µM (inactive) | > 100 µM (inactive) | > 100 µM (inactive) | > 100 µM (inactive) | > 100 µM (inactive)
COc1cc2c(c(OC)c1O)-c1ccc(OC)c(=O)cc1[C@@H](NC(=O)C(F)(F)F)CC2 | 0.327 µM (active) | 0.745 µM (active) | 0.0519 µM (active) | 0.307 µM (active) | 1.16 | 0.0217 µM (active) | 0.111 µM (active) | 0.0641 µM (active) | 0.391 µM (active) | 0.0809 µM (active) | 0.207 µM (active) | 0.0235 µM (active) | – | 0.392 µM (active) | 0.0242 µM (active) | 0.191 µM (active) | 2.52 µM (inactive) | 0.0975 µM (active) | 0.324 µM (active)
CC(C)(C)NNC(=O)CCn1[nH]c(=O)c(Cl)c(Cl)c1=O | 10.7 µM (inactive) | > 100 µM (inactive) | > 100 µM (inactive) | > 100 µM (inactive) | > 100 | > 100 µM (inactive) | – | > 100 µM (inactive) | > 100 µM (inactive) | > 100 µM (inactive) | > 100 µM (inactive) | > 100 µM (inactive) | > 100 µM (inactive) | > 100 µM (inactive) | – | > 100 µM (inactive) | > 100 µM (inactive) | > 100 µM (inactive) | > 100 µM (inactive)
CSC(SC)=C(C#N)C(=O)Nc1cccc(Cl)c1 | 61.1 µM (inactive) | 75.2 µM (inactive) | 33.1 µM (inactive) | 75.5 µM (inactive) | 38.4 | 15.4 µM (inactive) | 21 µM (inactive) | 79.4 µM (inactive) | > 100 µM (inactive) | – | 59.8 µM (inactive) | 17.5 µM (inactive) | 98.2 µM (inactive) | 42.6 µM (inactive) | 10.3 µM (inactive) | 65.8 µM (inactive) | > 100 µM (inactive) | > 100 µM (inactive) | 76.7 µM (inactive)
[N-]=[N+]=NC(c1cn(C2CC(O)C(CO)O2)c(=O)[nH]c1=O)C(Cl)I (stereo not given) | > 100 µM (inactive) | > 100 µM (inactive) | – | > 100 µM (inactive) | > 100 | – | – | – | > 100 µM (inactive) | > 100 µM (inactive) | > 100 µM (inactive) | – | > 100 µM (inactive) | > 100 µM (inactive) | > 100 µM (inactive) | > 100 µM (inactive) | > 100 µM (inactive) | > 100 µM (inactive) | > 100 µM (inactive)
